Measurements from patent publication US20050239884A1, “Compositions comprising hmg-coa reductase inhibitor” (priority 2002, published 2005).
Where a name gives a salt, the structure may show the parent alone.

Test: degradation kinetics of fluvastatin in aqueous solution at various pH
Format: physicochemical

% fluvastatin remaining at 37° C. after 1 hour (pH 1.0, 37° C.): 10.9%
% fluvastatin remaining at 37° C. after 24 hrs (pH 1.0, 37° C.): 0%
% fluvastatin remaining at 37° C. after 1 hour (pH 4.0, 37° C.): 86.7%
% fluvastatin remaining at 37° C. after 24 hrs (pH 4.0, 37° C.): 25.2%
% fluvastatin remaining at 37° C. after 1 hour (pH 6.0, 37° C.): 99.6%
% fluvastatin remaining at 37° C. after 24 hrs (pH 6.0, 37° C.): 97.1%
% fluvastatin remaining at 37° C. after 1 hour (pH 7.8, 37° C.): 98.3%
% fluvastatin remaining at 37° C. after 24 hrs (pH 7.8, 37° C.): 98.0%
Compound: CC(C)n1c(/C=C/C(O)CC(O)CC(=O)O)c(-c2ccc(F)cc2)c2ccccc21 (stereo not drawn) [fluvastatin, R*,S*-(E)-(±)-7-[3-(4-fluorophenyl)-1-(1-methyl-ethyl)-1H-indol-2-yl]-3,5-dihydroxy-6-heptenoic acid, sodium salt]
